The target in assay [1] is Sodium-dependent serotonin transporter (Rattus norvegicus, UniProt P31652). As to the kind of experiment: Displacement of [3H]5-HT from SERT in rat cerebral cortex synaptosome membrane. The assay is classed as tissue-based, Brain. In general terms: Loss of bound radioactivity is the signal in a displacement assay; it reports binding, not function.
Assay [2] has as its target Sodium-dependent serotonin transporter (Homo sapiens, UniProt P31645). As to the kind of experiment: Displacement of [3H]5-HT from human SERT.

Here are results for 7 molecules from ChEMBL document CHEMBL1142451, “The molecular interactions of buspirone analogues with the serotonin transporter” (Bioorg Med Chem, 2008).

Usually IC50 stands for the concentration that inhibits the measured activity by half. High values mean weaker potency, low ones greater potency.

Chain of Sodium-dependent serotonin transporter (Homo sapiens, UniProt P31645) (P31645 whole entry): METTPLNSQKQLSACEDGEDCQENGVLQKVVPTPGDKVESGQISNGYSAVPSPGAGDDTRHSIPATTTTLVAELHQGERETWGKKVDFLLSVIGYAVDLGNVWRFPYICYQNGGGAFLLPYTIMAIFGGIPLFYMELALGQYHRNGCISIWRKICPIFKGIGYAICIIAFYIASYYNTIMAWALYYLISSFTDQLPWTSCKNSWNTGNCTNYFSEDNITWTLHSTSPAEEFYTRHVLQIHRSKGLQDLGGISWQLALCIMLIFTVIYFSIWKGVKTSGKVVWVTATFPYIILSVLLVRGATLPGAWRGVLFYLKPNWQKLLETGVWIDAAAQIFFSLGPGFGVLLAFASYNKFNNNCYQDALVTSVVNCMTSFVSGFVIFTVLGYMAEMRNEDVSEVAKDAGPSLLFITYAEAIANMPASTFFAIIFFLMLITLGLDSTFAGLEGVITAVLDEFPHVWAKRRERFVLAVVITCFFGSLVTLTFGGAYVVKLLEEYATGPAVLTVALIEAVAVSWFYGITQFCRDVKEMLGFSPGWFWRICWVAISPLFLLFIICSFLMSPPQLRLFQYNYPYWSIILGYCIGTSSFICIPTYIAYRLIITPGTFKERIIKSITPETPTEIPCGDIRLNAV
Chain of Sodium-dependent serotonin transporter (Rattus norvegicus, UniProt P31652) (P31652 whole entry): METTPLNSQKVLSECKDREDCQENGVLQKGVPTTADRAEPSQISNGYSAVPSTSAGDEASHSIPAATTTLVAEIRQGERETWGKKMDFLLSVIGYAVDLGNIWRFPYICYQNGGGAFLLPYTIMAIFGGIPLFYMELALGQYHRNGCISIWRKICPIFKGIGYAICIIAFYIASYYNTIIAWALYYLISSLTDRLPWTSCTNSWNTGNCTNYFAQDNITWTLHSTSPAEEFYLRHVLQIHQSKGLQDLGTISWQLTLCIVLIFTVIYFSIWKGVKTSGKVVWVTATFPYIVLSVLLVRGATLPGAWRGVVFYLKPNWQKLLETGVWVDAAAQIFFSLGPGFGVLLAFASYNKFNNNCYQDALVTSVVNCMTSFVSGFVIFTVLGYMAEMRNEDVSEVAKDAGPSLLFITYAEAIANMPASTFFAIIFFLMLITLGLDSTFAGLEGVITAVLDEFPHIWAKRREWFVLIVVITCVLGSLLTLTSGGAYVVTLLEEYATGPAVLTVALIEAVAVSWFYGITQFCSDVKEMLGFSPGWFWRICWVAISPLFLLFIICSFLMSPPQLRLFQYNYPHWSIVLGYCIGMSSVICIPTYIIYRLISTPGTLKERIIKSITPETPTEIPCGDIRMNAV

In assay [1], `CC1(C)CC(=O)N(CCCCN2CCN(c3ccc4ccccc4n3)CC2)C(=O)C1` returned an IC50 of 146 nM. This lies in the sub-micromolar range. Still for that read-out and setting: the result for `O=C1CC2(CCCC2)CC(=O)N1CCCCN1CCN(c2ccc3ccccc3n2)CC1` reads 112 nM. Still for that read-out and setting: the result for `O=C1c2ccccc2C(=O)N1CCCCN1CCN(c2ccc3ccccc3n2)CC1` reads 95 nM. Take `CC1CN(c2ccc3ccccc3n2)CCN1CCCCN1C(=O)c2ccccc2C1=O` (stereo not drawn): the IC50 is 8 nM in assay [2] and 33 nM in assay [1]. `CC1CN(c2ccc3ccccc3n2)CCN1CCCCN1C(=O)CCCC1=O` (stereo not drawn) returned an IC50 in assay [2] of 50 nM. This lies in the double-digit nanomolar range. In the case of `CC1CN(c2ccc3ccccc3n2)CCN1CCCCN1C(=O)CC2(CCCC2)CC1=O` (stereo not drawn), the IC50 in assay [1] was determined as 75 nM. With `CC1CN(c2ccc3ccccc3n2)CCN1CCCN1C(=O)c2ccccc2C1=O` (stereo not drawn), in assay [2], the 50% inhibitory concentration (IC50) worked out at 80 nM.
